Targets include CDK2 (Homo sapiens, UniProt P24941); PIM1 (Homo sapiens, UniProt P11309); EpHA2 (Homo sapiens, UniProt P29317); OSR1 (Homo sapiens, UniProt O95747); PAK4 (Homo sapiens, UniProt O96013); PCTAIRE1 (Homo sapiens, UniProt Q00536); NEK7 (Homo sapiens, UniProt Q8TDX7); JNK2 (Homo sapiens, UniProt P45984); STLK3 (Homo sapiens, UniProt Q9UEW8).
Assay in all cases: biochemical
A further test has as its target T1, Haspin (Homo sapiens, UniProt Q8TF76).
T1 sequence (Q8TF76 1-798): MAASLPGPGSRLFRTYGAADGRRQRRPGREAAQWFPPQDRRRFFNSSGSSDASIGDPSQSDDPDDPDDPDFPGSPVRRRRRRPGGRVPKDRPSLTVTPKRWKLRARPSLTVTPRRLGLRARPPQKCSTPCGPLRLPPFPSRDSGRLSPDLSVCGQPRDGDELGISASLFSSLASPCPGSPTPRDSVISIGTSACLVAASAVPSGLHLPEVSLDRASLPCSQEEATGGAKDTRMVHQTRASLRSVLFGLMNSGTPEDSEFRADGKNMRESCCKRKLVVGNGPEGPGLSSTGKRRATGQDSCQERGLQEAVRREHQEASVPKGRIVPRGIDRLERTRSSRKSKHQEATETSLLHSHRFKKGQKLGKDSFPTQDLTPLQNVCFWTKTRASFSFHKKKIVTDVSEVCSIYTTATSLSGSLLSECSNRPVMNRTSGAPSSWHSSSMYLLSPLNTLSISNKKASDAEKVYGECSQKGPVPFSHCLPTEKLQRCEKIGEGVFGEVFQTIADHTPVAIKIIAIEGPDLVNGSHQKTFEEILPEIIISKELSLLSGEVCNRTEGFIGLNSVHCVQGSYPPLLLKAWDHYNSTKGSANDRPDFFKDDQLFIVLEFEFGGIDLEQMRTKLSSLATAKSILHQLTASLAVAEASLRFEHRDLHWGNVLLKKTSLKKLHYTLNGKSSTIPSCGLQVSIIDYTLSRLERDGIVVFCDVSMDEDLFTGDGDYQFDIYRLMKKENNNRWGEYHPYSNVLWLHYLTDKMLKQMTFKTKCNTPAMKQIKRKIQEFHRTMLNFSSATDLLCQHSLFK

In another test the target is T2, MARK4 (Homo sapiens, UniProt Q96L34).
T2 sequence (Q96L34 1-752): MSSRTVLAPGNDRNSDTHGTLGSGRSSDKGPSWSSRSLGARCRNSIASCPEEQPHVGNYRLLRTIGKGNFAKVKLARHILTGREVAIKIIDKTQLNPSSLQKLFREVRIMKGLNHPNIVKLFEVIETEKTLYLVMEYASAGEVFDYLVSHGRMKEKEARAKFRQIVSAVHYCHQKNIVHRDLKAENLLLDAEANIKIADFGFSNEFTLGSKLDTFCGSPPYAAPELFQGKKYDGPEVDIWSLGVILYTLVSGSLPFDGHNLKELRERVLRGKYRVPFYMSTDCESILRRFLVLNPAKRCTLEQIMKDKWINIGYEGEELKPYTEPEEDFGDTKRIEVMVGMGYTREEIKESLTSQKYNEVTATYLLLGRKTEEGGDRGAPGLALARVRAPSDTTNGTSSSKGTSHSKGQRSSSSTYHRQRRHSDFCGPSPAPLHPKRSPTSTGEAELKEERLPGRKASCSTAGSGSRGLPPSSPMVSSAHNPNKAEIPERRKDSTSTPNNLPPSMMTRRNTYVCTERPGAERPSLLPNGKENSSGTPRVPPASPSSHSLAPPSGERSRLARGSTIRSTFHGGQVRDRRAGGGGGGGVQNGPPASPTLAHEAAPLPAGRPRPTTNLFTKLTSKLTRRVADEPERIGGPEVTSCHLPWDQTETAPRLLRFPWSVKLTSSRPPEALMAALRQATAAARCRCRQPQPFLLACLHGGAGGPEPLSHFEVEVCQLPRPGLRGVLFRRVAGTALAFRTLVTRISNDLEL

Where two headings read alike, the source gives them in different places.

EpHA2, sequence (P29317 whole entry): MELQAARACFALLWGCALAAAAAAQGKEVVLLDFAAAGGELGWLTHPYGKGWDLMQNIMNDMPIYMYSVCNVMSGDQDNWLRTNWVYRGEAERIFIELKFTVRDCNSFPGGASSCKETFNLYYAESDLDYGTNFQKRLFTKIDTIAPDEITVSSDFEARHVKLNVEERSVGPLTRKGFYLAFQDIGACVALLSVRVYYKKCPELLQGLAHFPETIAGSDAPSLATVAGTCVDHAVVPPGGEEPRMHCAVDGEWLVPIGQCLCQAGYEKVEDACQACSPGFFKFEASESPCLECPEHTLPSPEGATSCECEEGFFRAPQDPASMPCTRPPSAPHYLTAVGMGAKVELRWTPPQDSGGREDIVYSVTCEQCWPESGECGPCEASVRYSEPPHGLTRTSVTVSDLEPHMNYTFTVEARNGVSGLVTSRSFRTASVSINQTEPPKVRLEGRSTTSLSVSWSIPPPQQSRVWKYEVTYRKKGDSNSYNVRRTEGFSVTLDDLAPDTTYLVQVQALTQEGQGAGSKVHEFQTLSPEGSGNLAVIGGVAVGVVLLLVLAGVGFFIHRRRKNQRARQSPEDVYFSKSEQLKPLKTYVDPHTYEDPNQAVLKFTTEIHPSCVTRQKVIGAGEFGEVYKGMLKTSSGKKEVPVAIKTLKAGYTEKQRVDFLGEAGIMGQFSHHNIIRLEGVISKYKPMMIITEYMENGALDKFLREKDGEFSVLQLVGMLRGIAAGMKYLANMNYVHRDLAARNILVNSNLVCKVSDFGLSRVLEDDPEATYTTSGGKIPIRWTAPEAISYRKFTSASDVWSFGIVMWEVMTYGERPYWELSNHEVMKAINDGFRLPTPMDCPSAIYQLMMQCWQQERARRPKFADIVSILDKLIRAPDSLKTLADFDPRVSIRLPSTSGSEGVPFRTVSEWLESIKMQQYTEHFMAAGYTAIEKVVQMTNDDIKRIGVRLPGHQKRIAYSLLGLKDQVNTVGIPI
JNK2, sequence (P45984 whole entry): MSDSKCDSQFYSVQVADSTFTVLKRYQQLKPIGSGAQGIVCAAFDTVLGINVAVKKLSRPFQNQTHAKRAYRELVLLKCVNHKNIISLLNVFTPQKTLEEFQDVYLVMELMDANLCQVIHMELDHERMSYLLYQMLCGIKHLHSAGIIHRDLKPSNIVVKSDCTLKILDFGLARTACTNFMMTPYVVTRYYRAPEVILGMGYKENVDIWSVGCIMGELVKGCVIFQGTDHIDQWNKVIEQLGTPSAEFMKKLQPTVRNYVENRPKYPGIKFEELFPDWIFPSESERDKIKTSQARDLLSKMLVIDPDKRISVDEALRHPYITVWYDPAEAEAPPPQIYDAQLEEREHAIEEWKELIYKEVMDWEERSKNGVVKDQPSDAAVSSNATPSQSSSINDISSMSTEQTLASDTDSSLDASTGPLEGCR
PCTAIRE1, sequence (Q00536 whole entry): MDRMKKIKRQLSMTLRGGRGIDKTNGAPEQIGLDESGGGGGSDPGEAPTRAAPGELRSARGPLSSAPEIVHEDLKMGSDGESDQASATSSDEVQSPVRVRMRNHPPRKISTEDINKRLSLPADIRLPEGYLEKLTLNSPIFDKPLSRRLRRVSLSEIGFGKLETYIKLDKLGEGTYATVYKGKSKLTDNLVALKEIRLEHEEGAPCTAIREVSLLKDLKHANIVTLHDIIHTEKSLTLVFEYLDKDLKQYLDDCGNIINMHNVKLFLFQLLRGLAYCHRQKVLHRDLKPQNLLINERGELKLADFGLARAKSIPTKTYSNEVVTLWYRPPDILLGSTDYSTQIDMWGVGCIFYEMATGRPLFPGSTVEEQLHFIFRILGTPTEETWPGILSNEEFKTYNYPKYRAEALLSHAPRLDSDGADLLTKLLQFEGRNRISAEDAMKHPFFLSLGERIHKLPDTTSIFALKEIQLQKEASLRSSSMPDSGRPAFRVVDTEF
PIM1, sequence (P11309 whole entry): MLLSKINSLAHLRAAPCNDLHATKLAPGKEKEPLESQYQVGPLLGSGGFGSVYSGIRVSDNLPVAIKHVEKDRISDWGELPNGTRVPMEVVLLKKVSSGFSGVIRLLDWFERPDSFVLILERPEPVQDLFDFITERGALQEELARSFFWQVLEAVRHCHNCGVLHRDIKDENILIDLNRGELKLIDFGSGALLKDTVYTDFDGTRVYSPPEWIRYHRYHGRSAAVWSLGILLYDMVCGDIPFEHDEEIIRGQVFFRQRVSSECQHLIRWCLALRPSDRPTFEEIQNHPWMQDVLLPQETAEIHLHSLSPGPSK
NEK7, sequence (Q8TDX7 whole entry): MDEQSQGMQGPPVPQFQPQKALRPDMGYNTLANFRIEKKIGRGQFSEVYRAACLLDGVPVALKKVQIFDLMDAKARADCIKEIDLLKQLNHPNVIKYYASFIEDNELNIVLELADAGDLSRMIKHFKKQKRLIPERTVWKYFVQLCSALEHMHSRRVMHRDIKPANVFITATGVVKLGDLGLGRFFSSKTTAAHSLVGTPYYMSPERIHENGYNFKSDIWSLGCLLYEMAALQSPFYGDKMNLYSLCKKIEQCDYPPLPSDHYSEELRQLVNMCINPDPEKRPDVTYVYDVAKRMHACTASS
OSR1, sequence (O95747 whole entry): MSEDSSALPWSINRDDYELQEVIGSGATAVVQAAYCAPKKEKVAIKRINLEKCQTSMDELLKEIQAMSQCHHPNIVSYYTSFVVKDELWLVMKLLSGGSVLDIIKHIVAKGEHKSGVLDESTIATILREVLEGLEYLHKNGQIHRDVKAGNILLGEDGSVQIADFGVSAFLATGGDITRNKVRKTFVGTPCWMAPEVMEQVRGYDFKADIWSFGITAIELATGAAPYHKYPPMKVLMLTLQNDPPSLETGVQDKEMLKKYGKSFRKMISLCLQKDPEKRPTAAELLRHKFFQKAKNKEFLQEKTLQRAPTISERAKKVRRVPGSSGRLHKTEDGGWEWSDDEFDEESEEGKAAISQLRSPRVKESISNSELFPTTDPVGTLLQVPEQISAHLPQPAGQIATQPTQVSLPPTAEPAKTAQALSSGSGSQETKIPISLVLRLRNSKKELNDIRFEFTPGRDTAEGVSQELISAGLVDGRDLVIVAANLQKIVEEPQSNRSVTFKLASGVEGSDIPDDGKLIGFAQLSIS
PAK4, sequence (O96013 whole entry): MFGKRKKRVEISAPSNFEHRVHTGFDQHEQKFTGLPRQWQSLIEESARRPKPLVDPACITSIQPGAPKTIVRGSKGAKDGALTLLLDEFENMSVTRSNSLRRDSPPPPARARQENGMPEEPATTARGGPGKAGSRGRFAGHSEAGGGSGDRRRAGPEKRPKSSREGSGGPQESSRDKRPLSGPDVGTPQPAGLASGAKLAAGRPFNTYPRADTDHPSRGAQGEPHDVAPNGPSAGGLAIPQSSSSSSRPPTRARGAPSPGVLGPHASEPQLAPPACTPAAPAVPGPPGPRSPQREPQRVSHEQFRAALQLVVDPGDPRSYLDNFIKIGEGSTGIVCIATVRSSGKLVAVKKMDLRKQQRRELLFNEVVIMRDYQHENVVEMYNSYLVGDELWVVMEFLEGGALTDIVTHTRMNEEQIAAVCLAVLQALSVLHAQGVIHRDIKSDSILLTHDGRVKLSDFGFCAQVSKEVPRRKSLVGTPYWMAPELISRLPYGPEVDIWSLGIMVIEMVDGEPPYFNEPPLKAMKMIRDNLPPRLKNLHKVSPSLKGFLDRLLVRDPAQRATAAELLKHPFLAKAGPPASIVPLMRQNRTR

Turning to `CNc1ncc2cc(-c3cc(C(F)(F)F)ccc3Cl)c(=O)n(CCCCN)c2n1` [compound 9, 8-(4-Aminobutyl)-6-(2-chloro-5-(trifluoromethyl)phenyl)-2-(methylamino)pyrido[2,3-d]pyrimidin-7(8H)-one], the ΔTm at 10 µM was 0.1 °C at Haspin (read-out: dTm 9); 0.3 °C on CDK2 (read-out: dTm 9); 0.6 °C at PIM1 (read-out: dTm 9); 4.8 °C at EpHA2 (read-out: dTm 9); 0 °C on MARK4 (read-out: dTm 9); 0.3 °C at OSR1 (read-out: dTm 9). Besides, the ΔTm at 10 µM at PAK4 (read-out: dTm 9) worked out at 0.5 °C; on PCTAIRE1 (read-out: dTm 9), 0.2 °C; at NEK7 (read-out: dTm 9) it was 0.4 °C; at JNK2 (read-out: dTm 9), 1 °C; on STLK3 (read-out: dTm 9) it was 0.3 °C.

For `CNc1ncc2cc(-c3cc(Cl)ccc3Cl)c(=O)n(CCCCN)c2n1` [compound 8, 8-(4-Aminobutyl)-6-(2,5-dichlorophenyl)-2-(methylamino)pyrido[2,3-d]pyrimidin-7(8H)-one], the ΔTm at 10 µM amounted to 0.6 °C on Haspin (read-out: dTm 8); 0.6 °C at CDK2 (read-out: dTm 8); 0.8 °C at PIM1 (read-out: dTm 8); 7.1 °C at EpHA2 (read-out: dTm 8); 1 °C at MARK4 (read-out: dTm 8); 0.3 °C on OSR1 (read-out: dTm 8). The ΔTm at 10 µM was 0.7 °C on PCTAIRE1 (read-out: dTm 8), -0.2 °C on NEK7 (read-out: dTm 8), 1.2 °C at JNK2 (read-out: dTm 8) and 0.2 °C on STLK3 (read-out: dTm 8).

With `CNc1ncc2cc(-c3cc(Br)ccc3Br)c(=O)n(CCCCN)c2n1` [compound 11, 8-(4-Aminobutyl)-6-(2,5-dibromophenyl)-2-(methylamino)pyrido[2,3-d]pyrimidin-7(8H)-one], the ΔTm at 10 µM at Haspin (read-out: dTm 11) was found to be 0.7 °C; on CDK2 (read-out: dTm 11), 0.7 °C; on PIM1 (read-out: dTm 11), 0.6 °C; on EpHA2 (read-out: dTm 11), 6.4 °C; on MARK4 (read-out: dTm 11) it was 1.8 °C; at OSR1 (read-out: dTm 11) it was 0.4 °C. Besides, the ΔTm at 10 µM is 1.1 °C at PAK4 (read-out: dTm 11); 0.9 °C on PCTAIRE1 (read-out: dTm 11); -0.2 °C at NEK7 (read-out: dTm 11); 1.2 °C on JNK2 (read-out: dTm 11); 0.3 °C on STLK3 (read-out: dTm 11).

For the molecule `CNc1ncc2cc(-c3cc(F)c(-c4cccc(C)n4)cc3F)c(=O)n(CCCCN)c2n1` [compound 12, 8-(4-Aminobutyl)-6-(2,5-difluoro-4-(6-methylpyridin-2-yl)phenyl)-2-(methylamino)pyrido[2,3-d]pyrimidin-7(8H)-one], the ΔTm at 10 µM is -0.4 °C on Haspin (read-out: dTm 12); 1.1 °C on CDK2 (read-out: dTm 12); 0.8 °C on PIM1 (read-out: dTm 12); 3.9 °C at EpHA2 (read-out: dTm 12); 4.5 °C at MARK4 (read-out: dTm 12); -0.2 °C at OSR1 (read-out: dTm 12). For the same molecule, the ΔTm at 10 µM at PAK4 (read-out: dTm 12) is 1.8 °C; on PCTAIRE1 (read-out: dTm 12) it was 1.3 °C; at NEK7 (read-out: dTm 12), -2.1 °C; at JNK2 (read-out: dTm 12) it was 0.2 °C; on STLK3 (read-out: dTm 12), 12.1 °C.

As for `CNc1ncc2cc(-c3cc(Cl)ccc3Br)c(=O)n(CCCCN)c2n1` [compound 10, 8-(4-Aminobutyl)-6-(2-bromo-5-chlorophenyl)-2-(methylamino)pyrido[2,3-d]pyrimidin-7(8H)-one], the ΔTm at 10 µM was 0.6 °C on Haspin (read-out: dTm 10); 0.6 °C at CDK2 (read-out: dTm 10); 0.8 °C on PIM1 (read-out: dTm 10); 7.4 °C on EpHA2 (read-out: dTm 10); 1.7 °C on MARK4 (read-out: dTm 10); -0.2 °C at OSR1 (read-out: dTm 10). In addition, the ΔTm at 10 µM was 1.3 °C on PAK4 (read-out: dTm 10); 0.6 °C at PCTAIRE1 (read-out: dTm 10); -0.5 °C on NEK7 (read-out: dTm 10); 0.9 °C on JNK2 (read-out: dTm 10); 0.3 °C on STLK3 (read-out: dTm 10).
